This assay is described as follows: Stain removal from HAP disk, Cran-Grape juice stain. The following applies: disk A-5: Cran-Grape juice stain treated the same way as P and Q (pH 8 SDS/HEPA buffer). The text has this:
Oxidation resistant chelating buffer: 0.25M 1-Hydroxyethylidenediphosphonic acid (etridonic acid) (Dequest® 2010, Thermphos) (HEPA) was pH adjusted by microtitration with 10N NaOH. 1.28 g of 1-Hydroxyethylidenediphosphonic acid was to a 25-mL volumetric flask and brought to volume with HPDI water. The solution was transferred to a 50-mL beaker with a stir bar and pH adjusted using 10.04N NaOH, monitored with a calibrated pH meter. Aliquat 336® (Cognis) (also suitable is Aliquat 134®) (N-methyl-tri-(n-octyl)ammonium chloride), (N-methyl TOA) or “HEPA” chelating pH Buffer: 2.5-μL of N-methyl TOA was added to 5 mL of pH 7 HEPA buffer and sonicated for 1 minute. pH 7 Sodium Dodecyl Sulfate (SDS)/HEPA Buffer: 10 mg of SDS was added to 5 mL of pH 7 HEPA buffer and sonicated for 1 minute. pH 8 SDS/HEPA Buffer: 10 mg of SDS was added to 5 mL of pH 8 HEPA buffer and sonicated for 1 minute.
• A. A tea stained disk was placed into the bowl of the bowl of a watch glass and 100 μL of pH 7 HEPA buffer was pipetted onto the disk surface. 3.7 mg of potassium ferrate(VI) was added to the disk surface and mixed gently. […] The disk was rinsed at 10 minutes with HPDI water. […] 1 mL of pH 7 HEPA buffer was added followed by 9 mL of HPDI water. 9.7 mg of potassium ferrate(VI) was added. The tube was gently hand shaken for 10 minutes. The disk was removed and rinsed with HPDI water. […] 10 mg of potassium ferrate(VI) was added to 1 mL of pH 7 HEPA buffer in a 50 mL centrifuge tube. 9 mL HPDI water was added, and the solution was shaken for a few seconds followed by the addition of a tea stained HAP disk. The disk was removed at 10 minutes and rinsed with HPDI water. […] 1.3 mg of potassium ferrate(VI) added and mixed into the solution. […] 1.4 mg of potassium ferrate(VI) was added to the disk surface and mixed gently. […] The reaction was allowed to continue for 5 minutes. […] The disk was rinsed several times with HPDI water. 100 μL of pH 7 HEPA buffer was pipetted onto the disk surface and allowed to react for 5 minutes. […] 1 mg of potassium ferrate(VI) was added and mixed into the liquid.

Regarding potassium ferrate(VI), the “L* (lightness/darkness)” value is given as 107.3, the “a* (blue/red)” value is −3.2, the “appearance of disk after treatment” value is given as “All stains were removed” and the “b* (yellow/green)” value is on record as −5.5. Besides, the “reflectance of visible light at 450 nm” value is on record as 126.369, the “reflectance of visible light at 750 nm” value was 108.805 and the “ΔE (cran-grape juice stain)” value is listed as 6.82.

(Values after patent publication US8663607B2, “Ferrate(VI)-containing compositions and methods of using ferrate(VI)” (Battelle Memorial Institute, priority 2007, dated 2014).)
